SMILES strings stand for the structures.

The test system of test [1] is S. mutans. Kind of test: Antimicrobial activity against S. mutans (growth inhibition, O.D. 600 nm). In kind it is cell-based, Streptococcus mutans. On the procedure: We evaluated antimicrobial activities of TUDCA (PRODOTTI CHIMICI E ALIMENTARI S.p.A. Co., Italy), bamboo salt, xanthorrhiza oil (curcuma xanthorrhiza oil having 22-35% of xanthorrhizol, ‘Curcuma Xanthorrhiza Essential Oil’ extracted from Curcuma Xanthorrhiza Root, Daewoong Bio Inc.), and a mixture thereof, against S. Mutans. Briefly, to each well of a 96-well plate, were added 100 μl of BHI broth (Brain Heart Infusion broth, Sigma-Aldrich) and each test material in two times higher concentration than the concentration shown in the following Table 2. S. mutans was cultured in BHI broth (Brain Heart Infusion broth, Sigma-Aldrich) at 35° C. for 24 hours. Absorbance at 600 nm of the S. mutans-containing culture medium was adjusted to 0.063 to 0.12 and then the resulting culture medium was diluted to 1/500. The diluted S. Mutans-containing culture medium (100 μl) was added to each well of the 96-well plate. The 96-well plate was incubated at 35° C. for 24 hours, followed by measuring the O.D. values at 600 nm with a spectrophotometer for obtaining the respective growth inhibition percentage.
Antimicrobial activities against S. mutans were evaluated using TUDCA in a relatively low concentration. Using the same kinds of TUDCA, bamboo salt, and xanthorrhiza oil, the evaluations of antimicrobial activity were carried out in the same manners as in Example 2.

Test [2] has as its system collagenase. As to the kind of experiment: Inhibitory activity on collagenase (azocoll assay). It counts as biochemical. The note with it: for Comparative inhibitory activity: [collagenase-inhibitory percentage of TUDCA / that of UDCA]*100. Here is the method:
The inhibitory activities of tauroursodeoxycholic acid (TUDCA) and ursodeoxycholic acid (UDCA) on collagenase were evaluated according to an azocoll assay method. Azocoll, Azo dye-impregnated collagen, is not dissolved in Tris-buffer. […] Therefore, by reacting said test materials with azocoll and then measuring the respective absorbance, the inhibitory activities of said materials on collagenase can be determined.
2% Azocoll solution (200 μl) and a buffer solution (0.01 M Tris-HCl, 1 mM CaCl2, pH 7.8) (150 μl) were respectively added to the 6 test tubes to obtain the solutions (Solution A1 to A6). Each solution (100 μl) obtained by dissolving TUDCA or UDCA in 10% ethanol in various concentrations was added to the solutions A1 to A6, so as to obtain the final concentrations of 1.600 w/v %, 0.533 w/v %, and 0.178 w/v %, respectively. Collagenase (50 μl) having 100 ppm concentration was added to the respective test mixture, which was then stirred in a 37° C. incubator for 18 hours. Each test tube was centrifuged for 5 minutes. The supernatant was separated from each test tube and then added to a 96-well plate. The absorbance at 540 nm was measured by a spectrophotometer and then the activity of the test group was determined from the standard activity curve. The standard activity curve was separately prepared by adding 10, 25, 50, and 100 μl of collagenase to the azocoll solution.
The collagenase-inhibitory ratio of TUDCA to the collagenase-inhibitory ratio of UDCA was determined according to the following formula and the results thereof are shown in Table 1. Comparative inhibitory activity=[Collagenase-inhibitory percentage of TUDCA/Collagenase-inhibitory percentage of UDCA]*100

For the compound `C[C@H](CCC(=O)NCCS(=O)(=O)O)[C@H]1CC[C@H]2[C@@H]3[C@@H](O)C[C@@H]4C[C@H](O)CC[C@]4(C)[C@H]3CC[C@]12C` [TUDCA, tauroursodeoxycholic acid], the Growth inhibition in test [1] (Table 2, TUDCA 0.5 w/v %) was determined as 38 ± 16%; in test [1] (Table 2, TUDCA 1 w/v %) it was 51 ± 13%; in test [1] (Table 3, TUDCA 0.01 w/v %), 13%. For the same compound, in test [1] (summary of Table 2), the “growth-inhibition activity against S. mutans (in words)” value is listed as “effective growth-inhibition activity”. Besides, the “inhibitory activity against collagenase in comparison with UDCA” value in test [2] (at the same concentration, in comparison with UDCA) is “about two times more strong inhibitory activity against collagenase”. Also, the Comparative inhibitory activity in test [2] (test material 0.178 w/v %) was found to be 264.75%; in test [2] (test material 0.533 w/v %), 252.56%; in test [2] (test material 1.600 w/v %), 227.17%.
